Article PMC6048956, “A Double-Blind, Placebo-Controlled Trial Demonstrating the Safety, Tolerability, and Pharmacokinetics of Single, Escalating Oral Doses of RTI-336” (Frontiers in Pharmacology, 2018)
Entries after “also recorded” stand apart in the source; their conditions may differ. Read-outs that look alike come from different tables or passages of the source.

What was measured:
[1] = preclinical toxicology; cited from earlier work
rat = tested on: rat; design: method as in Carroll et al., 2006a,b; Carroll, 2007; Howell et al., 2007; details: rat model, ref Carroll et al., 2006a,b, 2007, Howell et al.; cited from earlier work
monkeys [2] = details: acute and reversible with reduced dosing, preclinical toxicology; cited from earlier work
monkeys [3] = details: 9 mg/kg/day, 14-day; cited from earlier work
[4] = co-administration with ethanol, ref data on file, RTI, cited from earlier work
mice [5] = details: up to 75 mg/kg, preclinical toxicology; cited from earlier work
[6] = tested on: healthy male participants; test: Safety and tolerability of single, escalating oral doses (trial RTI-336-001); type: in vivo, human; details: for serum total bilirubin elevation: day 3 post-dose
Protocol: (§1) RTI-336-001 was a single-center, double-blind, placebo-controlled, and randomized clinical trial to evaluate the safety, tolerability, and PK of single, escalating oral doses of RTI-336 (0.3, 1, 3, 6, 12, and 20 mg) in 2 cohorts (lowest 3 doses and highest 3 doses) of healthy male participants. RTI-336 and placebo capsules were identical in appearance, and participants, care providers, and those assessing outcomes were blinded to study drug assignment. Each cohort was to be enrolled in 2 groups of 5 participants (randomized 4:1 drug:placebo independently at each dose); the second group was dosed 24 h after the first group, following a safety review of the first group. Each participant would receive up to 3 single, escalating oral doses (in periods 1, 2, and 3) of study drug under fasting conditions, with a minimum of 10 days between doses, and could only participate in one cohort. The number of participants is typical for first-in-man safety and PK studies, and the trial ran to completion.
Orthostatic vital signs (HR, systolic and diastolic blood pressure, and respiratory rate) were obtained pre-dose and at 1, 2, 4, 8, 12, 24, and 48 h post-dose. Body weight was measured at screening, on admissions to the clinic for dosing, and at 7 days following their final dose. Physical examinations of all major organ systems (including neurological examination) were performed at admission and at 48 h post-dose. Adverse events (AEs) were monitored from dosing until 8 days post-dose or resolution, whichever was longer.
Six-lead ECG telemetry was monitored from 15 min pre-dose until 8 h post-dose. Supine 12-lead ECGs were obtained pre-dose and at 1, 2, 4, 8, 12, 24, and 48 h post-dose.
Urine for urinalysis (bacteria, bilirubin, blood, glucose, ketones, leukocyte esterase, nitrite, pH, protein, red blood cells, specific gravity, urobilinogen, and WBC) was collected pre-dose and 48 h post-dose. Unfasted blood samples for chemistry (including troponin, albumin, alkaline phosphatase, ALT, AST, BUN, calcium, chloride, CK, creatinine, GGT, globulin, glucose, LDH, phosphorus, potassium, sodium, total bilirubin, total cholesterol, total protein, triglycerides, and uric acid) and hematology (basophils, eosinophils, Hct, Hgb, lymphocytes, RBC indices, monocytes, neutrophils, platelets, RBC, and WBC) were obtained on admission and fasted samples at 48 h post-dose.
The Mini Mental Status Examination (MMSE) ([Folstein et al., 1975]; [Malloy et al., 1997]) was performed on admission to the clinic and at 4 and 8 h post-dose.

rhesus monkey = tested on: rhesus monkey; design: method as in Carroll et al., 2006a,b; Carroll, 2007; Howell et al., 2007; details: rhesus monkey model, ref Carroll et al., 2006a,b, 2007, Howell et al.; cited from earlier work
mice [7] = test: Preclinical toxicology, seizures in mice
[8] = co-administration with morphine; ref data on file, RTI; cited from earlier work
rats [9] = details: acute and reversible with reduced dosing, preclinical toxicology; cited from earlier work
[10] = Plasma pharmacokinetics after single oral doses of RTI-336 in healthy males; type: in vivo, human; details: for half-life / AUC(0-inf) / Cmax / Tmax: male, human, plasma; for half-life: po
Protocol: as §1
Blood samples were obtained at 0.25, 0.5, 1, 1.5, 2, 3, 4, 6, 8, 12, 16, 24, 30, 36, and 48 h post-dose. Cumulative urine specimens were collected over the intervals 0–6, 6–12, 12–24, 24–36, and 36–48 h post-dose.

rats [11] = details: rats co-administered RTI-336 with cocaine, ref data on file; cited from earlier work
dog = details: 3 mg/kg, 22 h after the dose, preclinical toxicology; cited from earlier work
dopamine reuptake = dopamine reuptake (Homo sapiens, UniProt Q01959); test: Inhibition of dopamine reuptake; type: biochemical
Chain of dopamine reuptake (Q01959 whole entry): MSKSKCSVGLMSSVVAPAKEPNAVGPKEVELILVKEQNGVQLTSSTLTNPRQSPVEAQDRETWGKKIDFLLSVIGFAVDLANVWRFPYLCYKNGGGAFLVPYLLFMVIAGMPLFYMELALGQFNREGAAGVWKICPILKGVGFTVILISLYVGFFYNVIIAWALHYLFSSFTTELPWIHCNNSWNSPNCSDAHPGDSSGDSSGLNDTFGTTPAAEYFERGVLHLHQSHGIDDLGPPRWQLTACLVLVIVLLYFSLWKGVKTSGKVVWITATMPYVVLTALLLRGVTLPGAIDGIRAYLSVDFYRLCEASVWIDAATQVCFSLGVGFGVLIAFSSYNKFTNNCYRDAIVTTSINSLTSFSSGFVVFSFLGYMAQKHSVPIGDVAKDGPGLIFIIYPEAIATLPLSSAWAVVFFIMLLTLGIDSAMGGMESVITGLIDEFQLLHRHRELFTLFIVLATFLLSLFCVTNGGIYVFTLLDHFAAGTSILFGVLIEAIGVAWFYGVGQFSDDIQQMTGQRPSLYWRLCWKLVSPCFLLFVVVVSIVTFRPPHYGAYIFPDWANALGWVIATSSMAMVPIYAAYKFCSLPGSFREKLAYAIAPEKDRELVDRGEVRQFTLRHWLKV

[12] = humans, single oral doses up to 20 mg
[13] = single oral dose 1 mg, fasted, healthy males
[14] = single oral dose 3 mg, fasted, healthy males
[15] = single oral dose 6 mg, fasted, healthy males
[16] = single oral dose 12 mg, fasted, healthy males
[17] = single oral dose 20 mg, fasted, healthy males

For `Cc1ccc(-c2cc([C@@H]3C4CCC(C[C@@H]3c3ccc(Cl)cc3)N4C)on2)cc1` (some centres unmarked) [RTI-336], the cardiovascular effects [1] is given as “low potential for prolonging QTc interval”, the cocaine self-administration (rat) is given as “suppresses cocaine self-administration” and the “central nervous system adverse effects” value (monkeys [2]) is given as “central nervous system stimulation with hyperactivity and stereotypic behavior”. The hepatotoxicity (monkeys [3]) was “increased ALT activity and/or bilirubin and mild-to-moderate diffuse or centrilobular vacuolar degeneration in hepatocytes”, the “effect on ethanol-related mortality” value [4] was “did not increase ethanol-related mortality” and the “effect on ethanol-induced incoordination” value ([4]; rota-rod performance) was “reduced ethanol-induced incoordination”. The seizures (mice [5]) was “did not occur”, the “serum total bilirubin elevation” value ([6]; 2 participants, transient and mild, resolved by day 8) was < 1.5 × ULN and the “effects on the MMSE” value ([6]; 4 and 8 h post-dose) was “No effects were observed”. The “participants with AEs” value ([6]; cumulative dose 6 mg or greater) was 4 of 11, the “participants with AEs” value ([6]; cumulative doses less than 6 mg) was 3 of 10 and the ECG abnormalities [6, 12] was “no ECG abnormalities”. For the same compound, the “behavioral stimulation (hyperactivity, stereotypic behavior)” value [6, 12] was “no such behavioral stimulation”, the Adverse events ([6]; participant S031, cohort 1, period 2, 1 mg) was “Body temperature decreased” and the Adverse events ([6]; participant S031, cohort 1, period 3, 3 mg, cumulative 4 mg) was “Body temperature decreased, chalazion”. For the same compound, the Adverse events ([6]; participant S038, cohort 1, following 3 mg, cumulative 3.3 mg, possibly related to study drug) was “Somnolence^b”, the “serum total bilirubin elevation” value ([6]; participant S046, 1 mg) was 1.08 × ULN and the total bilirubin ([6]; participant S046, 1 mg, day 3 post-dose (ULN 20.5; 13.68 pre-dose, 8.55 day 8)) was 22.23. The “serum total bilirubin elevation” value ([6]; participant S046, 3 mg) was 1.001 × ULN, the total bilirubin ([6]; participant S046, 3 mg, day 3 post-dose (6.84 pre-dose, 5.13 day 8)) was 20.52 and the Adverse events ([6]; participant S059, cohort 2, 6 mg) was “Soft tissue inflammation”. The “serum total bilirubin elevation” value ([6]; participant S069, 6 mg) was 1.25 × ULN, the total bilirubin ([6]; participant S069, 6 mg, day 3 post-dose (10.26 pre-dose, 10.26 day 8)) was 25.65 and the Adverse events ([6]; participant S069, cohort 2, 6 mg, related to their activities, not to study drug) was “Blood creatine phosphokinase increased”. For the same compound, the Adverse events ([6]; participant S078, cohort 2, 6, 12, 20 mg, cumulative 38 mg) was “Nasal congestion, pharyngolaryngeal pain”, the “effects on other chemistry or hematology, urinalysis, vital sign, or ECG results” value ([6]; single oral doses 0.3-20 mg) was “No systematic RTI-336 effects were observed” and the tolerability ([6]; single oral doses 0.3-20 mg, healthy males) was “well-tolerated up to the maximum evaluated dose of 20 mg; also recorded: well-tolerated at single doses of up to 20 mg; also recorded: free of significant side effects or toxicity”. For the same compound, the maximum tolerated dose ([6]; single oral doses up to 20 mg) was “not identified”, the cocaine self-administration (rhesus monkey) was “suppresses cocaine self-administration” and the “highest seizure-free dose (75 mg/kg) relative to oral ED50 for spontaneous locomotor activity” value (mice [7]) was 7.5 fold. For the same compound, the “effect on morphine-related analgesia” value [8] was “did not affect morphine-related analgesia”, the “effect on weight loss” value [8] was “did increase weight loss” and the “central nervous system adverse effects” value (rats [9]) was “central nervous system stimulation with hyperactivity and stereotypic behavior”. The “dose proportionality of plasma drug exposure (AUC0-inf) and Cmax” value ([10]; 1-20 mg single oral dose range) was “increased in proportion to dose; also recorded: increased dose proportionally”, the “time of peak plasma RTI-336 concentration” value ([10]; across 1-20 mg single oral dose levels, fasted) was “around 4 h” and the half-life ([10]; 1 mg, single oral dose 1 mg, fasted, healthy males, read-out: t1/2 (converted)) was 5.44 h. It also gave a half-life ([10]; 3 mg, single oral dose 3 mg, fasted, healthy males, read-out: t1/2 (converted)) of 7.07 h, a half-life ([10]; 6 mg, single oral dose 6 mg, fasted, healthy males, read-out: t1/2 (converted)) of 17.9 h and a half-life ([10]; 12 mg, single oral dose 12 mg, fasted, healthy males, read-out: t1/2 (converted)) of 15.3 h. For the same compound, the half-life ([10]; 20 mg, across 6, 12 and 20 mg single oral doses, read-out: plasma half-life (converted)) was ~17 h, the half-life ([10]; 20 mg, single oral dose 20 mg, fasted, healthy males, read-out: t1/2 (converted)) was 18 h and the AUC(0-inf) [10, 13] was 3.8 ng·h/mL. It also gave a Cmax [10, 13] of 0.375 ng/mL, a Tmax [10, 13] of 4.5 h and an AUC(0-inf) [10, 14] of 12.3 ng·h/mL. For the same compound, the Cmax [10, 14] was 1.04 ng/mL, the Tmax [10, 14] was 3.71 h and the AUC(0-inf) [10, 15] was 40.4 ng·h/mL. The Cmax [10, 15] was 3.26 ng/mL, the Tmax [10, 15] was 4.38 h and the AUC(0-inf) [10, 16] was 63.1 ng·h/mL. It also gave a Cmax [10, 16] of 5.23 ng/mL, a Tmax [10, 16] of 3.67 h and an AUC(0-inf) [10, 17] of 115 ng·h/mL. The Cmax [10, 17] was 10.3 ng/mL, the Tmax [10, 17] was 3.43 h and the “effect on acute toxicity of cocaine” value (rats [11]) was “no potentiation of the acute toxicity of cocaine”. For the same compound, the seizures (dog) was “observed only in one dog” and the IC50 (dopamine reuptake) was 23 nM.
